Laboratory results reported in PubChem BioAssay AID248 (DTP/NCI, 2004).
Values joined by “and” are separate entries in the source; they are usually repeats but may differ in a detail not shown here. Equal values may be shown once. Inconclusive results and toxic doses are left out. Rule as the data show it: active = T/C of 150% or more; inactive = T/C below 125%.

Tested on: L1210 leukemia ip in BDF1 mice, survival T/C
Assay: NCI In Vivo Anticancer Drug Screen. Data for tumor model L1210 Leukemia (intraperitoneal) in B6D2F1 (BDF1) mice
Conditions: endpoint: mean survival time, higher = longer survival
Outline: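 Ratio derived from survival: compound-dosed mice over vehicle-dosed mice, all bearing a transplantable tumor.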

[1] = dose: 100.0 mg/kg/injection, schedule: Q01DX001 (ip), vehicle: saline
[2] = dose: 200.0 mg/kg/injection, schedule: Q01DX001 (ip), vehicle: saline
[3] = dose: 400.0 mg/kg/injection, schedule: Q01DX001 (ip), vehicle: saline
[4] = dose: 100.0 mg/kg/injection, schedule: Q04DX002 (ip), vehicle: saline with Tween-80
[5] = dose: 200.0 mg/kg/injection, schedule: Q04DX002 (ip), vehicle: saline with Tween-80
[6] = dose: 100.0 mg/kg/injection, schedule: Q04DX003 (ip), vehicle: saline
[7] = dose: 200.0 mg/kg/injection, schedule: Q04DX003 (ip), vehicle: saline
[8] = dose: 400.0 mg/kg/injection, schedule: Q04DX003 (ip), vehicle: saline
[9] = dose: 100.0 mg/kg/injection, schedule: Q01DX009 (ip), vehicle: Klucel (hydroxypropylcellulose) (HPC)
[10] = dose: 200.0 mg/kg/injection, schedule: Q01DX009 (ip), vehicle: Klucel (hydroxypropylcellulose) (HPC)
[11] = dose: 50.0 mg/kg/injection, schedule: Q01DX009 (ip), vehicle: saline
[12] = dose: 100.0 mg/kg/injection, schedule: Q01DX009 (ip), vehicle: saline
[13] = dose: 100.0 mg/kg/injection, schedule: Q04DX003 (ip), vehicle: saline with Tween-80
[14] = dose: 200.0 mg/kg/injection, schedule: Q04DX003 (ip), vehicle: saline with Tween-80
[15] = dose: 400.0 mg/kg/injection, schedule: Q04DX003 (ip), vehicle: saline with Tween-80
[16] = dose: 100.0 mg/kg/injection, schedule: Q01DX001 (ip), vehicle: saline with Tween-80
[17] = dose: 100.0 mg/kg/injection, schedule: Q01DX009 (ip), vehicle: saline with Tween-80
[18] = dose: 200.0 mg/kg/injection, schedule: Q01DX001 (ip), vehicle: saline with Tween-80
[19] = dose: 200.0 mg/kg/injection, schedule: Q01DX009 (ip), vehicle: saline with Tween-80
[20] = dose: 400.0 mg/kg/injection, schedule: Q01DX001 (ip), vehicle: saline with Tween-80
[21] = dose: 400.0 mg/kg/injection, schedule: Q01DX009 (ip), vehicle: saline with Tween-80
[22] = dose: 400.0 mg/kg/injection, schedule: Q04DX002 (ip), vehicle: saline with Tween-80
[23] = dose: 100.0 mg/kg/injection, schedule: Q04DX002 (ip), vehicle: saline
[24] = dose: 200.0 mg/kg/injection, schedule: Q04DX002 (ip), vehicle: saline
[25] = dose: 400.0 mg/kg/injection, schedule: Q04DX002 (ip), vehicle: saline

Measured: T/C

NC(CSc1ccc(Cl)cc1)C(=O)O (configuration not stated)
inactive: dose: 100.0 mg/kg/injection, schedule: Q04DX003 (sc), vehicle: steriod suspending solution 86 % of control | dose: 200.0 mg/kg/injection, schedule: Q04DX003 (sc), vehicle: steriod suspending solution 86 % of control | dose: 400.0 mg/kg/injection, schedule: Q04DX003 (sc), vehicle: steriod suspending solution 92 % of control

NC(=O)c1ccnn1C1OC(CO)C(O)C1O (configuration not stated)
inactive: dose: 50.0 mg/kg/injection, schedule: Q01DX005 (ip), vehicle: water 102 % of control | dose: 100.0 mg/kg/injection, schedule: Q01DX005 (ip), vehicle: water 102 % of control | dose: 200.0 mg/kg/injection, schedule: Q01DX005 (ip), vehicle: water 105 % of control

Cn1nc(SCc2ccccc2)c(N)nc1=O
inactive: [1] 102 % of control | [2] 100 % of control | [3] 101 % of control

CCOC(=O)Cc1cc(Cl)c2cc(C)ccc2n1
inactive: [1] 92 % of control | [2] 100 % of control | [3] 103 % of control and 89 % of control

NC(=S)NNc1ccccc1
inactive: [4] 105 % of control | [5] 105 % of control

O=c1oc2ccccc2c(Cl)c1Cl
inactive: dose: 10.0 mg/kg/injection, schedule: Q01DX001 (ip), vehicle: saline 109 % of control

C[N+](C)([O-])CCC=C1c2ccccc2CCc2ccccc21
inactive: dose: 12.5 mg/kg/injection, schedule: Q04DX003 (ip), vehicle: saline 103 % of control | dose: 25.0 mg/kg/injection, schedule: Q04DX003 (ip), vehicle: saline 106 % of control | dose: 50.0 mg/kg/injection, schedule: Q04DX003 (ip), vehicle: saline 103 % of control | [6] 103 % of control | [7] 97 % of control

Cn1cnc2cnc([N+](C)(C)C)nc21
inactive: [6] 103 % of control | [7] 114 % of control

Cc1c(CC[n+]2cccc(C(N)=O)c2)[nH]c(=O)[nH]c1=O
inactive: [6] 97 % of control | [7] 101 % of control | [8] 97 % of control

CC1([N+](=O)[O-])COP(=O)(Nc2ccc(Br)cc2)OC1 (configuration not stated)
inactive: dose: 50.0 mg/kg/injection, schedule: Q01DX001 (ip), vehicle: saline 93 % of control | [1] 98 % of control | [2] 104 % of control | [3] 122 % of control

CCCC(=O)OCC
inactive: [9] 100 % of control | [10] 105 % of control | dose: 400.0 mg/kg/injection, schedule: Q01DX009 (ip), vehicle: Klucel (hydroxypropylcellulose) (HPC) 97 % of control

NS(=O)(=O)c1ccc(Cl)cc1
inactive: [11] 95 % of control | [12] 102 % of control | dose: 100.0 mg/kg/injection, schedule: Q04DX002 (ip), vehicle: Klucel (hydroxypropylcellulose) (HPC) 103 % of control | [13] 104 % of control | dose: 200.0 mg/kg/injection, schedule: Q04DX002 (ip), vehicle: Klucel (hydroxypropylcellulose) (HPC) 103 % of control | [14] 112 % of control | dose: 400.0 mg/kg/injection, schedule: Q04DX002 (ip), vehicle: Klucel (hydroxypropylcellulose) (HPC) 103 % of control

CN(C)c1ccc(N2C(=O)C=CC2=O)cc1
inactive: dose: 6.25 mg/kg/injection, schedule: Q01DX001 (ip), vehicle: saline with Tween-80 104 % of control | dose: 12.5 mg/kg/injection, schedule: Q01DX001 (ip), vehicle: saline with Tween-80 105 % of control

ClC12CCC(Cl)(CC1)C2(Cl)Cl
inactive: dose: 25.0 mg/kg/injection, schedule: Q01DX009 (ip), vehicle: saline 95 % of control | [11] 103 % of control | [12] 96 % of control | [6] 98 % of control | [7] 95 % of control | [8] 98 % of control

CCCCCCCCCCCCCCCSc1ccc(Br)cc1
inactive: [13] 97 % of control | [14] 102 % of control | [15] 94 % of control

O=C(/C=C/c1cccc2ccccc12)c1ccccc1[N+](=O)[O-]
inactive: [16] 96 % of control | [17] 96 % of control and 87 % of control | [4] 88 % of control | [13] 96 % of control | [18] 96 % of control | [19] 89 % of control and 90 % of control | [5] 90 % of control | [14] 90 % of control | [20] 91 % of control | [21] 86 % of control and 90 % of control | [22] 88 % of control and 90 % of control | [15] 91 % of control

CCOC(=O)C1(C(=O)OCC)COC(C)(C)OC1
inactive: [6] 103 % of control | [7] 118 % of control | [8] 106 % of control

CCCCCCCCC(=O)CCCCCC
inactive: [17] 99 % of control | [13] 105 % of control | [19] 97 % of control | [14] 108 % of control | [21] 99 % of control | [15] 101 % of control

CN(C)C(=S)N=Nc1c(O)[nH]c2ccccc12
inactive: dose: 75.0 mg/kg/injection, schedule: Q01DX001 (ip), vehicle: other 103 % of control | dose: 150.0 mg/kg/injection, schedule: Q01DX001 (ip), vehicle: other 96 % of control | dose: 300.0 mg/kg/injection, schedule: Q01DX001 (ip), vehicle: other 105 % of control

CN(C)C(=O)Nc1cccnc1
inactive: dose: 75.0 mg/kg/injection, schedule: Q04DX003 (ip), vehicle: saline 97 % of control | dose: 150.0 mg/kg/injection, schedule: Q04DX003 (ip), vehicle: saline 106 % of control | dose: 300.0 mg/kg/injection, schedule: Q04DX003 (ip), vehicle: saline 101 % of control

CC(=O)OC1(C[N+](=O)[O-])CCCCC1
inactive: dose: 50.0 mg/kg/injection, schedule: Q01DX001 (ip), vehicle: saline with Tween-80 93 % of control | [16] 101 % of control | [18] 101 % of control

Cc1ccc(S(=O)(=O)c2ccc(C)c(N)c2)cc1N
inactive: [23] 105 % of control | [24] 99 % of control | [25] 96 % of control

Cc1ccc(C(C)C)c(OC(=O)Nc2cc(Cl)ccc2C)c1
inactive: [16] 98 % of control | [17] 100 % of control and 102 % of control | [4] 87 % of control and 88 % of control | [6] 92 % of control | [18] 95 % of control | [19] 102 % of control and 113 % of control | [5] 102 % of control and 89 % of control | [7] 92 % of control | [20] 93 % of control | [21] 100 % of control and 89 % of control | [22] 89 % of control and 91 % of control | [8] 92 % of control

NC(=O)/C(=C\c1ccncc1)c1cccc2ccccc12
inactive: [9] 97 % of control | [13] 108 % of control | [10] 97 % of control | [14] 88 % of control

COC(=O)c1nnc(C(=O)OC)nn1
inactive: [23] 96 % of control | [24] 115 % of control | [25] 96 % of control
